In the test the target is PD-1/PD-L1 (Homo sapiens, UniProt Q9NZQ7). Description: TR-FRET PD-1/PD-L1 binding inhibition at the molecular level (free proteins). Particulars: Tag1-PD-L1 and Tag2-PD-1 proteins, twelve concentrations from 200 nM, 2 hours at room temperature, read-out: FRET assay (IC50). The essentials:
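HTRF read-out at 665/620 nm after 2 h at room temperature. Detection used anti-Tag1 Eu cryptate plus anti-Tag2 XL665 antibodies. Tagged PD-L1 and PD-1 proteins were pre-mixed with compound across twelve […] 1:2 dilutions starting at 200 nM.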

Chain of PD-1/PD-L1 (Q9NZQ7 19-238 limits assumed): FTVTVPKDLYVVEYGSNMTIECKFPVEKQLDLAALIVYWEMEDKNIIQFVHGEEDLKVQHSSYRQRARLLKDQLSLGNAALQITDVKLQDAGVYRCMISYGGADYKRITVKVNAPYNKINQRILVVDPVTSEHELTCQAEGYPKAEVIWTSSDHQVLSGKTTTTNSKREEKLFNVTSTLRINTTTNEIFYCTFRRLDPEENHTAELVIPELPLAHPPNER

As to `Cc1nc(Nc2cccc(-c3cccc(NC(=O)c4cc5n(n4)CCC[C@H]5NC(C)(C)C(=O)O)c3Cl)c2Cl)c2ncccc2n1` [Compound 280, (R)-2-((2-((2,2'-dichloro-3'-((2-methylpyrido[3,2-d]pyrimidin-4-yl)amino)-[1,1'-biphenyl]-3-yl)carbamoyl)-4,5,6,7-tetrahydropyrazolo[1,5-a]pyridin-4-yl)amino)-2-methylpropanoic acid], the half-maximal inhibitory concentration (IC50) was less than 10 nM.

For the compound `Cc1nc(Nc2cccc(-c3cccc(NC(=O)c4cc5n(n4)CCC[C@@H]5N4CC(C(=O)O)C4)c3Cl)c2Cl)c2ncccc2n1` [Compound 281, (S)-1-(2-((2,2'-dichloro-3'-((2-methylpyrido[3,2-d]pyrimidin-4-yl)amino)-[1,1'-biphenyl]-3-yl)carbamoyl)-4,5,6,7-tetrahydropyrazolo[1,5-a]pyridin-4-yl)azetidine-3-carboxylic acid], the IC50 was less than 10 nM.

With `Cc1nc(Nc2cccc(-c3cccc(NC(=O)c4cc5n(n4)CCC[C@H]5N4CC(C(=O)O)C4)c3Cl)c2Cl)c2ncccc2n1` [Compound 282, (R)-1-(2-((2,2'-dichloro-3'-((2-methylpyrido[3,2-d]pyrimidin-4-yl)amino)-[1,1'-biphenyl]-3-yl)carbamoyl)-4,5,6,7-tetrahydropyrazolo[1,5-a]pyridin-4-yl)azetidine-3-carboxylic acid], the half-maximal inhibitory concentration (IC50) was less than 10 nM.

In the case of `O=C(Nc1cccc(-c2cccc(Nc3nccc4cc(CN5CC(F)C5)cnc34)c2Cl)c1Cl)c1cc2n(n1)CCC[C@@H]2N1CCC(C(=O)O)CC1` [Compound 283, (S)-1-(2-((2,2'-dichloro-3'-((3-((3-fluoroazetidin-1-yl)methyl)-1,7-naphthyridin-8-yl)amino)-[1,1'-biphenyl]-3-yl)carbamoyl)-4,5,6,7-tetrahydropyrazolo[1,5-a]pyridin-4-yl)piperidine-4-carboxylic acid], the half-maximal inhibitory concentration (IC50) is 10 to 100 nM.

As for `O=C(Nc1cccc(-c2cccc(Nc3nccc4cc(CN5CC(F)C5)cnc34)c2Cl)c1Cl)c1cc2n(n1)CCC[C@H]2N1CCC(C(=O)O)CC1` [Compound 284, (R)-1-(2-((2,2'-dichloro-3'-((3-((3-fluoroazetidin-1-yl)methyl)-1,7-naphthyridin-8-yl)amino)-[1,1'-biphenyl]-3-yl)carbamoyl)-4,5,6,7-tetrahydropyrazolo[1,5-a]pyridin-4-yl)piperidine-4-carboxylic acid], the concentration for half-maximal inhibition (IC50) fell in the range of 10 to 100 nM.

As to `Cc1c(NC(=O)c2cc3n(n2)CCC[C@@H]3N2CCC(O)CC2)cccc1-c1cccc(Nc2nc(C(F)(F)F)nc3cccnc23)c1C` [Compound 285, (S)-N-(2,2'-dimethyl-3'-((2-(trifluoromethyl)pyrido[3,2-d]pyrimidin-4-yl)amino)-[1,1'-biphenyl]-3-yl)-4-(4-hydroxypiperidin-1-yl)-4,5,6,7-tetrahydropyrazolo[1,5-a]pyridine-2-carboxamide], the IC50 lay within 10 to 100 nM.

As for `Cc1c(NC(=O)c2cc3n(n2)CCC[C@@H]3N2CCC(O)CC2)cccc1-c1cccc(Nc2nc(C(F)F)nc3cccnc23)c1C` [Compound 287, (S)-N-(3'-((2-(difluoromethyl)pyrido[3,2-d]pyrimidin-4-yl)amino)-2,2'-dimethyl-[1,1'-biphenyl]-3-yl)-4-(4-hydroxypiperidin-1-yl)-4,5,6,7-tetrahydropyrazolo[1,5-a]pyridine-2-carboxamide], the IC50 was in the range of 10 to 100 nM.

Consider `Cc1c(NC(=O)c2cc3n(n2)CCC[C@H]3N2CCC(O)CC2)cccc1-c1cccc(Nc2nc(C(F)F)nc3cccnc23)c1C` [Compound 288, (R)-N-(3'-((2-(difluoromethyl)pyrido[3,2-d]pyrimidin-4-yl)amino)-2,2'-dimethyl-[1,1'-biphenyl]-3-yl)-4-(4-hydroxypiperidin-1-yl)-4,5,6,7-tetrahydropyrazolo[1,5-a]pyridine-2-carboxamide], for which the IC50 lay within 10 to 100 nM.

For the compound `O=C(Nc1cccc(-c2cccc(Nc3nc(C(F)F)nc4cccnc34)c2Cl)c1Cl)c1cc2n(n1)CCC[C@@H]2N1CCC(C(=O)O)CC1` [Compound 289, (S)-1-(2-((2,2'-dichloro-3'-((2-(difluoromethyl)pyrido[3,2-d]pyrimidin-4-yl)amino)-[1,1'-biphenyl]-3-yl)carbamoyl)-4,5,6,7-tetrahydropyrazolo[1,5-a]pyridin-4-yl)piperidine-4-carboxylic acid], the IC50 was less than 10 nM.

For the compound `Cc1c(NC(=O)c2cc3n(n2)CCC[C@@H]3N2CCC(C(=O)O)CC2)cccc1-c1cccc(Nc2nc(C(F)F)nc3cccnc23)c1C` [Compound 291, (S)-1-(2-((3'-((2-(difluoromethyl)pyrido[3,2-d]pyrimidin-4-yl)amino)-2,2'-dimethyl-[1,1'-biphenyl]-3-yl)carbamoyl)-4,5,6,7-tetrahydropyrazolo[1,5-a]pyridin-4-yl)piperidine-4-carboxylic acid], the IC50 lay in the range of 10 to 100 nM.

On to `Cc1c(NC(=O)c2cc3n(n2)CCC[C@H]3N2CCC(C(=O)O)CC2)cccc1-c1cccc(Nc2nc(C(F)F)nc3cccnc23)c1C` [Compound 292, (R)-1-(2-((3'-((2-(difluoromethyl)pyrido[3,2-d]pyrimidin-4-yl)amino)-2,2'-dimethyl-[1,1'-biphenyl]-3-yl)carbamoyl)-4,5,6,7-tetrahydropyrazolo[1,5-a]pyridin-4-yl)piperidine-4-carboxylic acid], for which the half-inhibitory concentration (IC50) is less than 10 nM.

On to `O=C(O)CN[C@H]1CCCn2nc(C(=O)Nc3cccc(-c4cccc(Nc5nc(C(F)F)nc6cc(CN7CC[C@@H](O)C7)cnc56)c4Cl)c3Cl)cc21` [Compound 293, 2-(((S)-2-((2,2'-dichloro-3'-((2-(difluoromethyl)-7-(((R)-3-hydroxypyrrolidin-1-yl)methyl)pyrido[3,2-d]pyrimidin-4-yl)amino)-[1,1'-biphenyl]-3-yl)carbamoyl)-4,5,6,7-tetrahydropyrazolo[1,5-a]pyridin-4-yl)amino)acetic acid], for which the IC50 lay in the range of 10 to 100 nM.

Consider `O=C(Nc1cccc(-c2cccc(Nc3nc(C(F)F)nc4cc(CN5CC[C@@H](O)C5)cnc34)c2Cl)c1Cl)c1cc2n(n1)CCC[C@@H]2N1CCC(O)CC1` [Compound 295, (S)-N-(2,2'-dichloro-3'-((2-(difluoromethyl)-7-(((R)-3-hydroxypyrrolidin-1-yl)methyl)pyrido[3,2-d]pyrimidin-4-yl)amino)-[1,1'-biphenyl]-3-yl)-4-(4-hydroxypiperidin-1-yl)-4,5,6,7-tetrahydropyrazolo[1,5-a]pyridine-2-carboxamide], for which the IC50 is 10 to 100 nM.

As for `O=C(Nc1cccc(-c2cccc(Nc3nc(C(F)F)nc4cc(CN5CC[C@@H](O)C5)cnc34)c2Cl)c1Cl)c1cc2n(n1)CCC[C@H]2N1CCC(O)CC1` [Compound 296, (R)-N-(2,2'-dichloro-3'-((2-(difluoromethyl)-7-(((R)-3-hydroxypyrrolidin-1-yl)methyl)pyrido[3,2-d]pyrimidin-4-yl)amino)-[1,1'-biphenyl]-3-yl)-4-(4-hydroxypiperidin-1-yl)-4,5,6,7-tetrahydropyrazolo[1,5-a]pyridine-2-carboxamide], the 50% inhibitory concentration (IC50) lay in the range of 10 to 100 nM.

Take `CC(C)c1nc(Nc2cccc(-c3cccc(NC(=O)c4cc5n(n4)CCC[C@@H]5N4CCC(C(=O)O)CC4)c3Cl)c2Cl)c2ncccc2n1` [Compound 297, (S)-1-(2-((2,2'-dichloro-3'-((2-isopropylpyrido[3,2-d]pyrimidin-4-yl)amino)-[1,1'-biphenyl]-3-yl)carbamoyl)-4,5,6,7-tetrahydropyrazolo[1,5-a]pyridin-4-yl)piperidine-4-carboxylic acid]: the IC50 was 100 to 1000 nM.

For the compound `CC(C)c1nc(Nc2cccc(-c3cccc(NC(=O)c4cc5n(n4)CCC[C@@H]5NC(C)(C)C(=O)O)c3Cl)c2Cl)c2ncccc2n1` [Compound 299, (S)-2-((2-((2,2'-dichloro-3'-((2-isopropyl-pyrido[3,2-d]pyrimidin-4-yl)amino)-[1,1'-biphenyl]-3-yl)carbamoyl)-4,5,6,7-tetrahydropyrazolo[1,5-a]pyridin-4-yl)amino)-2-methylpropanoic acid], the IC50 was in the range of 10 to 100 nM.

Consider `CC(C)c1nc(Nc2cccc(-c3cccc(NC(=O)c4cc5n(n4)CCC[C@@H]5N4CC(C(=O)O)C4)c3Cl)c2Cl)c2ncccc2n1` [Compound 301, (S)-1-(2-((2,2'-dichloro-3'-((2-isopropyl-pyrido[3,2-d]pyrimidin-4-yl)amino)-[1,1'-biphenyl]-3-yl)carbamoyl)-4,5,6,7-tetrahydropyrazolo[1,5-a]pyridin-4-yl)azetidine-3-carboxylic acid], for which the IC50 lay within 100 to 1000 nM.

`CC(C)c1nc(Nc2cccc(-c3cccc(NC(=O)c4cc5n(n4)CCC[C@H]5N4CC(C(=O)O)C4)c3Cl)c2Cl)c2ncccc2n1` [Compound 302, (R)-1-(2-((2,2'-dichloro-3'-((2-isopropyl-pyrido[3,2-d]pyrimidin-4-yl)amino)-[1,1'-biphenyl]-3-yl)carbamoyl)-4,5,6,7-tetrahydropyrazolo[1,5-a]pyridin-4-yl)azetidine-3-carboxylic acid]: the IC50 fell in the range of 10 to 100 nM.

For `O=C(Nc1cccc(-c2cccc(Nc3nc(C(F)(F)F)nc4cccnc34)c2Cl)c1Cl)c1cc2n(n1)CCC[C@@H]2N1CCC(O)CC1` [Compound 303, (S)-N-(2,2'-dichloro-3'-((2-(trifluoromethyl)pyrido[3,2-d]pyrimidin-4-yl)amino)-[1,1'-biphenyl]-3-yl)-4-(4-hydroxypiperidin-1-yl)-4,5,6,7-tetrahydropyrazolo[1,5-a]pyridine-2-carboxamide], the concentration for half-maximal inhibition (IC50) fell in the range of 10 to 100 nM.

As to `O=C(Nc1cccc(-c2cccc(Nc3nc(C(F)(F)F)nc4cccnc34)c2Cl)c1Cl)c1cc2n(n1)CCC[C@H]2N1CCC(O)CC1` [Compound 304, (R)-N-(2,2'-dichloro-3'-((2-(trifluoromethyl)pyrido[3,2-d]pyrimidin-4-yl)amino)-[1,1'-biphenyl]-3-yl)-4-(4-hydroxypiperidin-1-yl)-4,5,6,7-tetrahydropyrazolo[1,5-a]pyridine-2-carboxamide], the half-inhibitory concentration (IC50) fell in the range of 10 to 100 nM.
